# Reference: patent US6635652B1, “Azaindolizinone derivatives and cerebral function improvers containing the same as the active ingredient” (Zenyaku Kogyo Kabushiki Kaisha, priority 1999, dated 2003)
# What was measured:
# [1] = system: rats of the ICR strain; assay: Toxicity test on rats in a single dose through oral administration; type: in vivo; details: oral administration of 2,000 mg/kg, suspended in 1% HPC, observation for 14 days
# Method: Used in the test were rats of the ICR strain at 6 weeks of age (27.9±0.4 g body weight). They were allowed to freely take food and water; however, fasting was made for a period of 17 hours before administration of the test compounds and for a period of 4 hours after the administration. The respective test compounds were suspended in 1% of hydroxypropyl cellulose (HPC)and orally administered. Until 6 hours after the administration of the test compounds, observation was made frequently, and after that once a day and totally for 14 days.
# Used as the test compounds were Compounds 8 and 10.
# [2] = system: amnesia of rats induced by scopolamine; assay: Effects on scopolamine-induced amnesia (passive avoidance task, oral administration); type: in vivo; details: Rattus norvegicus, po, 60 min before retention trial, scopolamine hydrobromide 2 mg/kg i.p., passive avoidance latency, male Strague Dawley rats, read-out: Inhibitory rate (%); for inhibition in vivo at 0.01 mg/kg: 0.01 mg/kg p.o.; for inhibition in vivo at 1 mg/kg: 1 mg/kg p.o.
# Description: Male rats of the Strague Dawley strain at 8 weeks of age (260±2 g body weight) were used for evaluation through passive avoidance task. The apparatus of passive avoidance task comprises illuminated and dark chambers which are separated from each other by a wall with a door. Floors are constituted by grids made of stainless steel; only the grid in the dark chamber is furnished with wiring for electrification.
# Effected on the first and second days of testing was preparative training; each rat was placed in the illuminated chamber and left for 3 minutes to habituate to the apparatus. On the third day of testing, the rats were individually placed in the illuminated chamber and after entering the dark chamber, the door was closed and the floor grid was electrified to deliver electric shock (100 V, 0.4 mA, a period of 0.8 sec). In order to induce amnesia, scopolamine hydrobromide (2 mg/kg) was intraperitoneally injected 20 minutes before the electric shock was delivered. Retention in memory on the electric shock was tested 24 hours later; more specifically, retention in passive avoidance trial was measured in terms of a time interval (latency) from placement of each rat in the illuminated chamber to its entry into the dark chamber. The latency over 300 seconds was recorded as 300 seconds. Respective test compounds were suspended in an aqueous solution of 1% carboxymethyl cellulose and orally administered at a dose of 0.01 or 1 mg/kg 60 minutes before the trial.
# Antiamnesic effects of the test compounds were evaluated by inhibitory rate (%) which is calculated by the following formula: [formula]
# wherein T stands for latency and SC stands for administration of scopolamine hydrobromide. Experimental results are shown in the following table in which, as to each of the test compounds, only the dose showing higher inhibitory rate was indicated.
melting point,SMILES,death after single oral dose [1],inhibition in vivo at 0.01 mg/kg [2] [%],inhibition in vivo at 1 mg/kg [2] [%]
100.5 to 102 °C,"CCCCC1(CCCC)C(=O)N=C2C=CC=CN21 [Compound 34, 3,3-Dibutylimidazo[1,2-a]pyridin-2(3H)-one]",–,59.6,–
172 to 175 °C,"C#CCC1(CC#C)C(=O)N=C2C=CC=CN21 [Compound 35, 3,3-di(2-Propynyl)imidazo[1,2-a]pyridin-2(3H)-one]",–,30.3,–
283 to 285 °C,"O=C1N=C2C(O)=CC=CN2C1(Cc1ccccc1)Cc1ccccc1 [Compound 36, 3,3-Dibenzyl-8-hydroxyimidazo[1,2-a]pyridin-2(3H)-one]",–,30,–
250 °C,"O=C1N=C2C(NCc3ccccc3)=CC=CN2C1(Cc1ccccc1)Cc1ccccc1 [Compound 37, 3,3-Dibenzyl-8-benzylaminoimidazo[1,2-a]pyridin-2(3H)-one]",–,56,–
> 300 °C,"O=C1N=C2C=CC=CN2C1(Cc1ccccc1)Cc1ccc(F)cc1 (stereo not shown) [Compound 39, 3-Benzyl-3-(4-fluorobenzyl)imidazo[1,2-a]pyridin-2(3H)-one]",–,43.7,–
> 300 °C,"O=C(O)c1ccc(CC2(Cc3ccc(C(=O)O)cc3)C(=O)N=C3C=CC=CN32)cc1 [Compound 40, 3,3-bis(4-Carboxybenzyl)imidazo[1,2-a]pyridin-2(3H)-one]",–,–,40.7
283 to 285 °C,"NC1=CC=CN2C1=NC(=O)C2(Cc1ccccc1)Cc1ccccc1 [Compound 41, 8-Amino-3,3-dibenzylimidazo[1,2-a]pyridin-2(3H)-one]",–,30,–

# Further lines, the compound ahead of its results:
SMILES,melting point,death after single oral dose [1],inhibition in vivo at 0.01 mg/kg [2] [%],inhibition in vivo at 1 mg/kg [2] [%]
"CC1=CC=CN2C1=NC(=O)C2(Cc1ccccc1)Cc1ccccc1 [Compound 8, 3,3-Dibenzyl-8-methylimidazo[1,2-a]pyridin-2(3H)-one]",–,None of them induced death,34.8,–
"O=C1N=C2C=CC=CN2C1(Cc1ccccc1)Cc1ccccc1 [Compound 10, 3,3-Dibenzylimidazo[1,2-a]pyridin-2(3H)-one]",–,None of them induced death,78.7,–
"CCCC1(CCC)C(=O)N=C2C=CC=CN21 [Compound 29, 3,3-Dipropylimidazo[1,2-a]pyridin-2(3H)-one]",73 to 75 °C,–,–,115
"O=C1N=C2C=CC=CN2C1(Cc1cccs1)Cc1cccs1 [Compound 30, 3,3-bis(2-Thienylmethyl)imidazo[1,2-a]pyridin-2(3H)-one]",289.5 °C (dec.),–,79.5,–
"CC(=O)NC1=CC=CN2C1=NC(=O)C2(Cc1ccccc1)Cc1ccccc1 [Compound 31, 8-Acetylamino-3,3-dibenzylimidazo[1,2-a]pyridin-2(3H)-one]",235 to 237 °C,–,–,60.4
"O=C1N=C2C=CC=CN2C1(Cc1ccco1)Cc1ccco1 [Compound 32, 3,3-bis(2-Furylmethyl)imidazo[1,2-a]pyridin-2(3H)-one]",205 °C (dec.),–,77.4,–
"O=C1N=C2C=CC=CN2C1(Cc1ccc([N+](=O)[O-])cc1)Cc1ccc([N+](=O)[O-])cc1 [Compound 38, 3,3-bis(4-Nitrobenzyl)imidazo[1,2-a]pyridin-2(3H)-one]",> 300 °C,–,–,58.5
